Results: paper PMC7466821 (Investigational new drugs, 2017)
Values joined by “and” are separate entries in the source; they are usually repeats but may differ in a detail not shown here. Equal values may be shown once.

Assays:
[1] = system: patients with locally advanced or metastatic SCLC, ovarian cancer or cervical cancer; assay: Phase Ib Part 1: DLT evaluation and RP2D determination; format: in vivo, human; conditions: IV over 30 min days 1, 8, 15, 22 every 28 days; topotecan 4 mg/m^2 days 1, 8, 15
[2] = system: patients with locally advanced or metastatic SCLC, ovarian and cervical cancers; conditions: in vivo
[3] = in vivo
[4] = system: patients with advanced solid tumors; conditions: cited from earlier work
[5] = system: leukemia and lung cancer cell lines; conditions: cited from earlier work
[6] = system: leukemia xenograft models; conditions: cited from earlier work
[7] = ME-344 plasma pharmacokinetics, Part 1 cycle 1, noncompartmental; conditions: ME-344 10 mg/kg IV over 30 min with topotecan, 13 patients, arithmetic mean
patients = conditions: topotecan monotherapy; cited from earlier work

**Q.** Which “recommended phase II dose (RP2D) of ME-344 in combination with topotecan” value [1] does the source give for `Cc1c(O)ccc2c1OC[C@@H](c1ccc(O)cc1)[C@H]2c1ccc(O)cc1` [ME-344] here?
**A.** 10 mg/kg

**Q.** What about the “patients with SAE related to ME-344 (grade 3 diarrhea)” value [2] of the same molecule?
**A.** 1 patient

**Q.** What about the neurotoxicity ([2]; iv, 10 mg/kg) of the same molecule?
**A.** neurotoxicity was not observed

**Q.** What about the “end-of-infusion concentration on Day 15 lower than on Day 1” value [3] of the same molecule?
**A.** approximately 27%

**Q.** And the “doses at which DLT (grade 3 or higher peripheral neuropathy) was observed” value ([4]; IV weekly)?
**A.** 15 to 20 mg/kg and > 10 mg/kg

**Q.** What about the “recommended phase II dose (RP2D), single agent” value ([4]; IV weekly) of the same molecule?
**A.** 10 mg/kg

**Q.** What about the “duration of prolonged stable disease” value [4] of the same molecule?
**A.** 31–52 weeks

**Q.** What about the “patients with prolonged stable disease” value [4] of the same molecule?
**A.** 5 patients

**Q.** And the “duration of partial response” value ([4]; single patient with SCLC)?
**A.** 52 weeks

**Q.** What about the cytotoxicity in vitro [5] of the same molecule?
**A.** cytotoxic

**Q.** What about the anti-tumor activity [6] of the same molecule?
**A.** demonstrates anti-tumor activity

**Q.** What about the “t1/2 (terminal half-life)” value [7] of the same molecule?
**A.** 5.3 h and 5.301 h

**Q.** Which results are given for `CC[C@@]1(O)C(=O)OCc2c1cc1n(c2=O)Cc2cc3c(CN(C)C)c(O)ccc3nc2-1` [topotecan, reference compound]?
**A.** SAEs related to topotecan in the additional patients ([2]; human): 6 SAEs; additional patients with SAEs related to topotecan ([2]; human): 5 patients; grade 3/4 hematologic toxicity rate (patients): 16.7%
